We go through 15 compounds from patent US10138245B2, “Fused triazole derivatives as phosphodiesterase 10A inhibitors” (Celon Pharma S.A., priority 2014, dated 2018).

A short description of data set [1]: Metabolic stability in rat liver microsomal fraction. It counts as in vitro ADME. As to conditions: liver microsomes, 37° C., phase I cofactors; for microsomal CLint: read-out: Cl(int). The protocol: Tested compounds were incubated in triplicates with rat liver microsomal fraction at 37° C. in the presence of metabolic phase I cofactors (NADP, G6P, G6P dehydrogenase, MgCl2) necessary for metabolic transformations. Concentration of a non-metabolized tested compound in the reaction mixture was measured using LC/MS method at 4 time points: after 0, 20, 40 and 60 min of incubation. The AUC of compounds at those time points were compared with AUC at point 0 to obtain % loss of parental compound. The obtained data were used for calculation of internal clearance (Cl(int)) and half-life (T½). The metabolic activity of microsomes was assessed by measuring the stability of two standards with low and high metabolic stability, propranolol and donepezil, respectively.
On the technique in general: Liver microsomes are vesicles of endoplasmic reticulum, rich in cytochrome P450 enzymes.

In data set [2] the target is Recombinant human phosphodiesterase 10A (PDE10A) (Homo sapiens (Human), UniProt Q9Y233). Briefly: Assay of phosphodiesterase 10 inhibition in vitro (PDE-Glo luminescent method). It counts as biochemical. As to conditions: averaged IC50 values, read-out: hPDE10A1 IC50. On the procedure: 1. Assay of Phosphodiesterase 10 Inhibition In Vitro
Recombinant human phosphodiesterase 10A (PDE10A) purified to homogeneity from Sf9 cells overexpressing PDE10A gene (GenBank/EMBL accession number: NM_001130690) was used for inhibition tests.
Inhibitory activity of the compounds towards PDE10A was tested using PDE-Glo (Promega Corporation, Madison, USA) luminescent method on 96-well plates. Test was performed for 8 concentrations of the compounds. Test compounds were dissolved in 100% DMSO and resulted solutions were diluted 5× in concentrated PDE-Glo Reaction Buffer. Eight concentrations of each tested compound were obtained by subsequent dilution. 5 μl of obtained solutions were added into the wells of 96-well plate. Next, 7.5 μl of a solution containing […] enzyme diluted in 1× concentrated PDE-Glo Reaction Buffer were added into the well to obtain the final amount of 2-10 ng (depending on the activity of the enzyme batch used in the study). In order to facilitate interaction between compounds and the enzyme, plates were incubated for 1 minute at room temperature and then 9 minutes at 4° C. Reaction was initiated by addition of 12.5 μl of 2 μM cAMP solution into the well and subsequently plate was incubated at 30° C.
After 40 minutes reaction was stopped by addition of 12.5 μl of PDE-Glo Termination Buffer with high concentration of a known PDE10 inhibitor. Plate content was stirred with orbital shaker at 500 RPMs for 10 minutes and then in the next step 12.5 μl of freshly prepared PDE-Glo Detection Solution were added into the well.
Plate was incubated for 20 minutes at room temperature before 50 μl of Kinase Glo reagent (Promega Corporation, Madison, USA) was applied into the wells and incubation at room temperature was continued for the next 10 minutes. After incubation, luminescence intensity in wells was measured with the Victor Light (Perkin Elmer Inc.) luminometer.
Percent of PDE10A inhibition by tested compounds was determined based on luminescence intensity measurements in wells containing test compounds and in control wells. Results were then fitted using a four-parameter logistic fit in GraphPad Prism 5.03 software (GraphPad Software Inc.). Negative control wells contained all above mentioned reagents except test compounds and positive control wells contained all above mentioned reagents except test compounds and the PDE10A enzyme. Each chemical compound was assayed in at least two independent runs (2×96-well plate in duplicate) with at least 3 wells of each of the controls.

Chain of Recombinant human phosphodiesterase 10A (PDE10A) (Q9Y233 267-1055): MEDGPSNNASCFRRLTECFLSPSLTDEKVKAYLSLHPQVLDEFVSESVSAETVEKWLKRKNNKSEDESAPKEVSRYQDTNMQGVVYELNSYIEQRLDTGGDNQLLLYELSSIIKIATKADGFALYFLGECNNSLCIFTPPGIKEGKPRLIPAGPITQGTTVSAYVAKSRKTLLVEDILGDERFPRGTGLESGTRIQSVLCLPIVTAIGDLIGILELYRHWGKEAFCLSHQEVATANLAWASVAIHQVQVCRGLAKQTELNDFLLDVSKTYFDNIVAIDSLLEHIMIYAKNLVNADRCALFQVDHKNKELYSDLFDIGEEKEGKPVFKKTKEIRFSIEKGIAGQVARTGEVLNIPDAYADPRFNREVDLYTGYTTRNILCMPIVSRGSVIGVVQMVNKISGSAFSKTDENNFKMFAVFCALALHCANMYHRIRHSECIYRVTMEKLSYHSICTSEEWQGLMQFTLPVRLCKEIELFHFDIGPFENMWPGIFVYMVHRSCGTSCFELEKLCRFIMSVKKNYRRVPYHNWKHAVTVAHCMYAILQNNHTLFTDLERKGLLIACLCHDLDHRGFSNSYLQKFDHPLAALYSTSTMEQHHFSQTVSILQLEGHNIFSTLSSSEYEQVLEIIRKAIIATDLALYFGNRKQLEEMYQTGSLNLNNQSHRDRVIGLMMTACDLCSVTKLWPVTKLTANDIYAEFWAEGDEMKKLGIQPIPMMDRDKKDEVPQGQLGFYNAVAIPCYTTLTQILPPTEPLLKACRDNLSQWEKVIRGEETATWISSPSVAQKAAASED

Take `Cc1ncc(C)n2nc(-c3ccn4cc(-c5ccccc5)nc4c3)nc12` [Ex. 1 of WO2013003298, reference compound]: in data set [1], the half-life – broadly, the time needed for the level to fall by half in the phase considered – amounted to 0.559 h and the microsomal CLint is 68.9 µL/min/mg.
Turning to `Cc1cc(C)n2nc(-c3ccc4[nH]c(-c5ccccc5)nc4c3)nc2n1` [Example 1, 5,7-Dimethyl-2-(2-phenyl-1H-benzo[d]imidazol-5-yl)-[1,2,4]triazolo-[1,5-a]pyrimidine], the IC50 – broadly, the concentration that gives 50% inhibition – in data set [2] worked out at 47 nM.
For `Cc1ncc(C)n2nc(-c3ccc4[nH]c(-c5ccccc5F)nc4c3)nc12` [Example 2, 2-[2-(2-Fluorophenyl)-1H-benzo[d]imidazol-5-yl]-5,8-dimethyl-[1,2,4]-triazolo[1,5-a]pyrazine], the half-inhibitory concentration (IC50) in data set [2] came to 37 nM.
On to `Cc1cc(C)n2nc(-c3ccc4[nH]c(-c5ccccn5)nc4c3)nc2n1` [Example 3, 5,7-Dimethyl-2-[2-(pyridin-2-yl)-1H-benzo[d]imidazol-5-yl]-[1,2,4]triazolo[1,5-a]pyrimidine], for which, in data set [2], the IC50 worked out at 279 nM.
As to `Cc1ncc(C)n2nc(-c3ccc4[nH]c(-c5ccccc5)nc4c3)nc12` [Example 4, 5,8-Dimethyl-2-(2-phenyl-1H-benzimidazol-5-yl)[1,2,4]triazolo[1,5-a]pyrazine], in data set [2], the half-maximal inhibitory concentration (IC50) came out at 27 nM. For the same compound, in data set [1], the half-life was 1.05 h and the microsomal CLint was 36.8 µL/min/mg.
Consider `Cc1cc(C)n2nc(-c3ccc4[nH]c(-c5ccncc5)nc4c3)nc2n1` [Example 5, 5,7-Dimethyl-2-[2-(pyridin-4-yl)-1H-benzimidazol-5-yl][1,2,4]triazolo[1,5-a]pyrimidine], for which the IC50 in data set [2] came out at 953 nM.
As to `Cc1ncc(C)n2nc(-c3ccc4[nH]c(-c5cccc(F)c5)nc4c3)nc12` [Example 6, 2-[2-(3-Fluorophenyl)-1H-benzimidazol-5-yl]-5,8-dimethyl[1,2,4]triazolo[1,5-a]pyrazine], the IC50 in data set [2] amounted to 172 nM.
As to `Cc1ncc(C)n2nc(-c3ccc4[nH]c(-c5ccc(F)cc5)nc4c3)nc12` [Example 7, 2-[2-(4-Fluorophenyl)-1H-benzimidazol-5-yl]-5,8-dimethyl[1,2,4]triazolo[1,5-a]pyrazine], the IC50 in data set [2] worked out at 54 nM.
With `Cc1ncc(C)n2nc(-c3ccc4[nH]c(-c5nccs5)nc4c3)nc12` [Example 8, 5,8-Dimethyl-2-[2-(1,3-thiazol-2-yl)-1H-benzimidazol-5-yl][1,2,4]triazolo[1,5-a]pyrazine], the IC50 in data set [2] came out at 84 nM.
On to `Cc1ncc(C)n2nc(-c3ccc4[nH]c(-c5ccccn5)nc4c3)nc12` [Example 40, 5,8-Dimethyl-2-[2-(pyridin-2-yl)-1H-benzimidazol-5-yl][1,2,4]triazolo[1,5-a]pyrazine], for which, in data set [2], the IC50 was 63 nM.
Regarding `COc1ccccc1-c1nc2cc(-c3nc4c(C)ncc(C)n4n3)ccc2[nH]1` [Example 41, 2-[2-(2-Methoxyphenyl)-1H-benzimidazol-5-yl]-5,8-dimethyl[1,2,4]triazolo[1,5-a]-pyrazine], the IC50 in data set [2] is 19.5 nM.
Consider `Cc1cc(C)n2nc(-c3ccc4c(c3)nc(-c3ccccc3)n4C)nc2n1` [Example 48A, 5,7-Dimethyl-2-(1-methyl-2-phenyl-1H-benzo[d]imidazol-5-yl)-[1,2,4]-triazolo[1,5-a]pyrimidine], for which the IC50 in data set [2] stood at 794 nM.
As for `Cc1cc(C)n2nc(-c3ccc4nc(-c5ccccc5)n(C)c4c3)nc2n1` [Example 48B, 5,7-Dimethyl-2-(1-methyl-2-phenyl-1H-benzo[d]imidazol-6-yl)-[1,2,4]-triazolo[1,5-a]pyrimidine], the IC50 in data set [2] stood at 413 nM.
With `Cc1cc(C)n2nc(-c3ccn4cc(-c5ccccc5)nc4n3)nc2n1` [Example 56, 5,7-Dimethyl-2-(2-phenylimidazo[1,2-a]pyrimidin-7-yl)[1,2,4]triazolo-[1,5-a]pyrimidine], the IC50 in data set [2] turned out to be 96 nM.
Regarding `Cc1ncc(C)n2nc(-c3ccn4cc(-c5ccccc5)nc4n3)nc12` [Example 57, 5,8-Dimethyl-2-(2-phenylimidazo[1,2-a]pyrimidin-7-yl)[1,2,4]triazolo[1,5-a]pyrazine], in data set [2], the IC50 amounted to 35.7 nM. Besides, in data set [1], the half-life is 1.1 h and the microsomal CLint was 34.9 µL/min/mg.
